Results: patent US11510965B2, “Vesicles comprising epidermal growth factor and compositions thereof” (Centro de Ingeniería Genética y Biotecnología, priority 2012, dated 2022)

What was measured:
Aspergillus niger = assay: Agar diffusion method, fungicidal activity; format: cell-based; settings: 28° C., 72 hours; controls 100 μg/ml
Protocol: (§1) This activity was determined using the agar diffusion method (Manual of Clinical Microbiology. 6th ed. Washington, DC: ASM; 1995). The effectiveness of the different suspensions was assayed against Gram positive bacteria (Bacillus subtilis, Staphylococcus aureus), Gram negative bacteria (E. coli, Proteus mirabilis), and against fungi (Candida albicans, Aspergillus niger) using the technique of wells in nutrient agar plates. These microorganisms were identified and provided by the microorganism collection BCCM/LMG (Belgium). Bacteria were grown overnight at 37° C. in Tryptone Soy Broth (Oxoid), and fungi were incubated for 72 hours at 28° C. in Sabouraud Dextrose Broth (Oxoid). These suspensions were used as inocula. A final inoculum, using 100 μl of a suspension containing 10^8 colony forming units/ml of bacteria, or 10^4 spores/ml of fungus, was spread on Tryptone Soy Agar and Sabouraud Dextrose Agar (Oxoid) plates, respectively. The disk (6 mm in diameter) was impregnated with each of the different vesicle suspensions to be tested. […] Assay plates were incubated at 37° C. for 24 hours for bacteria, and 28° C. during 72 hours for fungi, depending on the incubation time required for visible growth.

Candida albicans = assay: Agar diffusion method, fungicidal activity; format: cell-based; settings: 28° C., 72 hours; controls 100 μg/ml
Protocol: as §1

[1] = cholesterol:CTAB vesicles, DELOS-SUSP; cited from earlier work

OC(Cn1cncn1)(Cn1cncn1)c1ccc(F)cc1F [Fluconazole, fluconazole]
Fungicidal activity (Inhibition zone) A. niger (Aspergillus niger): 21 mm | Fungicidal activity (Inhibition zone) C. albicans (Candida albicans): 22 mm

gentamicin
gentamicin encapsulation [1]: < 2%
